From ChEMBL document CHEMBL1134878, “L-Cysteine based N-type calcium channel blockers: structure-activity relationships of the C-terminal lipophilic moiety, and oral analgesic efficacy in rat pain models” (Bioorg Med Chem Lett, 2002)

Key:
[1] = (§1) In vitro inhibition of calcium influx (L-type blocking activity) in AtT-20 mouse pituitary tumor-derived cells; assay type: functional; details: AtT20
[2] = Selectivity IC50 ratio of L-type [Ca2+] channel blocking activity (AtT-20 mouse pituitary tumor-derived cells) to that of N-type blocking activity (IMR-32 human neuroblastoma cells)
[3] = molecular target: T1, Voltage-dependent N-type calcium channel subunit alpha-1B (Homo sapiens, UniProt Q00975); assay: In vitro inhibition of N-type calcium channel influx in IMR-32 human neuroblastoma cells; assay type: cell-based
Target sequence in this assay (Q00975 whole entry): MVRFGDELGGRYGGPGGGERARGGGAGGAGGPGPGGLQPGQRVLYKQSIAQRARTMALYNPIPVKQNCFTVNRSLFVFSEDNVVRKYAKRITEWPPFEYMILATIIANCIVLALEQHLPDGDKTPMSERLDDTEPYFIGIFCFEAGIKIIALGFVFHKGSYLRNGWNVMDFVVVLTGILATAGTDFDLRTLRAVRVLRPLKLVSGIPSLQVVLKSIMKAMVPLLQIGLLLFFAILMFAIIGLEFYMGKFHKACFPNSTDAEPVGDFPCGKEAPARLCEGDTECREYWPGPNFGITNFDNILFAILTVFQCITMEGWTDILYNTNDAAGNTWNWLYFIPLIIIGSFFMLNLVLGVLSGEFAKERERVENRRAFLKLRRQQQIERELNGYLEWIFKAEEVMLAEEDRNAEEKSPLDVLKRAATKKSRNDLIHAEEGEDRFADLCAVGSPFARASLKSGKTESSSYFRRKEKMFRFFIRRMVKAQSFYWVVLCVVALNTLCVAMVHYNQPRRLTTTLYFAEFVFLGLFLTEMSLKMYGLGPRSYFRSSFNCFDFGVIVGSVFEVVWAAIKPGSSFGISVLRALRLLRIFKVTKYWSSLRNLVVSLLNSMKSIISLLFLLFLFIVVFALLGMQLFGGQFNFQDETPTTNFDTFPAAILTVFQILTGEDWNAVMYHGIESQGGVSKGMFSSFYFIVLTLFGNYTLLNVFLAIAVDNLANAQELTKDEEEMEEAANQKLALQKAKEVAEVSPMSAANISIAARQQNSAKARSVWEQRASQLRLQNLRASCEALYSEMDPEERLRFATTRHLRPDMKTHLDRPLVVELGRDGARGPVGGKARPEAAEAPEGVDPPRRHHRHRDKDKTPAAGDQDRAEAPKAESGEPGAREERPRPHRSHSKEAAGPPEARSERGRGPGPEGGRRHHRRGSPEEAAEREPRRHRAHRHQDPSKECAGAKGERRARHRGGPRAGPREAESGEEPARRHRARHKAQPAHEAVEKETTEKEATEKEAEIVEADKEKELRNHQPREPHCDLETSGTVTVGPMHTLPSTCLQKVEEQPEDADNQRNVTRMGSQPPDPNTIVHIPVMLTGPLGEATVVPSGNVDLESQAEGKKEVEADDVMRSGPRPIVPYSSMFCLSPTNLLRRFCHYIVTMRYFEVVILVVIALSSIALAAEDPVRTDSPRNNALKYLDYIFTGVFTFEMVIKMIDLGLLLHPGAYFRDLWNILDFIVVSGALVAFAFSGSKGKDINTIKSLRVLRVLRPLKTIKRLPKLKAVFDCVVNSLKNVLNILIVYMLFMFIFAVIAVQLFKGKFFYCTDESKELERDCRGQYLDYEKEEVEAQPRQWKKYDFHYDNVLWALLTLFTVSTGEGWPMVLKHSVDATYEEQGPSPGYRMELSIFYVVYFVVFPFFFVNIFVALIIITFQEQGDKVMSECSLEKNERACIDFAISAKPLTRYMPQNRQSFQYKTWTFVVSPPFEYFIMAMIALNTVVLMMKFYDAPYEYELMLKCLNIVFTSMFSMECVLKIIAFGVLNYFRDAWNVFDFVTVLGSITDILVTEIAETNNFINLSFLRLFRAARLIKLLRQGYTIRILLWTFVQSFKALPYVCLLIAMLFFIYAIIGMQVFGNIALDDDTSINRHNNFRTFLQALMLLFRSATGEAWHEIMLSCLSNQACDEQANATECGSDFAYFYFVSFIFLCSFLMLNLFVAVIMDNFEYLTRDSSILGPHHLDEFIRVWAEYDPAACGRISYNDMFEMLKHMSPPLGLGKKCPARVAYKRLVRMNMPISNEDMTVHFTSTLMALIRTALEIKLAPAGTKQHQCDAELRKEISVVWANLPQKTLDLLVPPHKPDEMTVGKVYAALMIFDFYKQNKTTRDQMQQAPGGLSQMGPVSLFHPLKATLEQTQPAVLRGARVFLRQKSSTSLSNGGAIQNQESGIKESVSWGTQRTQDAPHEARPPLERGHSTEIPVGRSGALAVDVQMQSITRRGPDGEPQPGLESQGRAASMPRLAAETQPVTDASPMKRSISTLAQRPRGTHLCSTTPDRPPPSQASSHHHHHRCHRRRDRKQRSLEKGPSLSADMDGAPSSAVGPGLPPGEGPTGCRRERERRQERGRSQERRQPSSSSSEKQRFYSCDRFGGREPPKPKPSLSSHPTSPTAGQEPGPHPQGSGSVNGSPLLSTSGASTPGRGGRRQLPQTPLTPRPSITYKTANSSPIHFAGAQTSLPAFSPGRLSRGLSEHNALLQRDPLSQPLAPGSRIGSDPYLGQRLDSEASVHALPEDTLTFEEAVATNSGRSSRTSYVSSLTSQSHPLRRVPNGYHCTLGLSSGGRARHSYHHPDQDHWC

[4] = Partition coefficient (logP); assay type: physicochemical; details: octanol/water
[5] = as §1; details: AtT20
[6] = Selectivity IC50 ratio of L-type blocking activity (AtT-20 mouse pituitary tumor-derived cells) to that of N-type blocking activity (IMR-32 human neuroblastoma cells)
[7] = molecular target: T1, Voltage-dependent N-type calcium channel subunit alpha-1B; assay: Percentage inhibition of N-type calcium channel influx in IMR-32 human neuroblastoma cells at 3 uM; assay type: cell-based
Target sequence in this assay (Q00975 whole entry, looked up): as the sequence (Q00975 whole entry) above

Rattus norvegicus [8] = assay: Minimum effective oral dose required for the antinociceptive effects on thermal hyperalgesia induced by CCI (chronic constriction injury) of the sciatic nerve in rat; assay type: functional; details: read-out: MED
Rattus norvegicus [9] = assay: Minimum effective oral dose required for the inhibition of paw flinching in rat formalin induced pain model; assay type: functional; details: read-out: MED

SMILES | IC50 [1] [µM] | Ratio [2] | IC50 [3] [µM] | logP [4] | IC50 [5] [µM] | Ratio [6] | inhibition [7] [%] | minimal effective dose (Rattus norvegicus [8]) [mg/kg] | minimal effective dose (Rattus norvegicus [9]) [mg/kg]
CC(C)(C)OC(=O)N1CSC[C@H]1C(=O)N[C@@H](CSCC1CCCCC1)C(=O)N1CCC(NCc2ccccc2)CC1 | 2.6 | 5.2 | 0.5 |  |  |  |  |  | 
CC(C)(C)OC(=O)N1CSC[C@H]1C(=O)N[C@@H](CSCC1CCCCC1)C(=O)NCCNCc1ccccc1 |  |  | 0.38 | 2.8 | 2.4 | 6.3 |  |  | 
CC(C)(C)OC(=O)N1CSC[C@H]1C(=O)N[C@@H](CSCC1CCCCC1)C(=O)N1CCN(Cc2ccccc2)CC1 |  |  | 0.37 |  | 1 | 2.7 |  |  | 
CC(C)(C)OC(=O)N1CSC[C@H]1C(=O)N[C@@H](CSCC1CCCCC1)C(=O)N1CCC(Nc2ccccc2)CC1 | 0.54 | 0.82 | 0.66 |  |  |  |  |  | 
CC(C)(C)OC(=O)N1CSC[C@H]1C(=O)N[C@@H](CSCC1CCCCC1)C(=O)NC1CCN(Cc2ccccc2)CC1 | 5 | 15 | 0.33 | 3.5 |  |  | 75 | 30 | 10
CC(C)(C)OC(=O)N1CSC[C@H]1C(=O)N[C@@H](CSCC1CCCCC1)C(=O)NC1CCN(c2ccccc2)CC1 |  |  | 0.15 |  | 0.54 | 3.6 |  |  | 
CC(C)(C)OC(=O)N1CSC[C@H]1C(=O)N[C@@H](CSCC1CCCCC1)C(=O)N1CCN(c2ccccc2)CC1 |  |  | 0.39 |  | 0.58 | 1.5 |  |  | 
CC(C)(C)OC(=O)N1CSC[C@H]1C(=O)N[C@@H](CSCC1CCCCC1)C(=O)NCc1ccc(Oc2ccccc2)cc1 |  |  |  | 5 | 1.7 | 12 |  |  | > 100
